Assay results reported in patent US20170029355A1, “LABILE ESTERS OF AGROCHEMICALS FOR CONTROLLED RELEASE AND REDUCTION OF OFF-SITE MOVEMENT” (Monsanto Technology LLC, priority 2011, published 2017).

What was measured:
[1] = Solubility of the esters (statements of the description); assay type: physicochemical; conditions: qualitative
[2] = In vitro photo-release and hydrolytic release of dicamba in an aqueous medium (Example 36); assay type: physicochemical; conditions: 0.01 mM (0.005 mM for diesters); for Conversion to Dicamba, Dark, Day 0 / Conversion to Dicamba, Dark, Day 1 / Conversion to Dicamba, Dark, Day 2 / Conversion to Dicamba, Dark, Day 3 / Conversion to Dicamba, Dark, Day 4 / Conversion to Dicamba, Dark, Day 7 / Conversion to Dicamba, Dark, Day 14 / Conversion to Dicamba, Dark, Day 21 / Conversion to Dicamba, Dark, Day 28: amber (dark) bottle; for Conversion to Dicamba, Light, Day 0 / Conversion to Dicamba, Light, Day 1 / Conversion to Dicamba, Light, Day 2 / Conversion to Dicamba, Light, Day 3 / Conversion to Dicamba, Light, Day 4 / Conversion to Dicamba, Light, Day 7 / Conversion to Dicamba, Light, Day 14 / Conversion to Dicamba, Light, Day 21 / Conversion to Dicamba, Light, Day 28: quartz tube
Method: This Example describes the determination of photo-lability and hydrolytic lability of dicamba esters in an aqueous medium. 1 mM solutions of the esters were prepared in acetonitrile (or […] solutions of dicamba diesters). The solutions were then diluted with deionized water to a concentration of 0.01 mM (or 0.005 mM for diesters). The solutions were then transferred to quartz tubes and amber bottles and held in a growth chamber by the procedure of Example 26. A 14-hour day was generally used at a constant temperature of 35° C. Hydrolytic activity was assessed by measuring the increase in dicamba concentration after day zero in the amber (dark) bottles. […] Photolysis manifested itself as increased conversion in the quartz tubes compared to the dark control.
This Example provides the results of an aqueous lability test following the protocol of Example 35 for several dicamba esters which convert to dicamba primarily by hydrolysis. As shown by the results in the table below, conversion of the dark controls generally equaled or exceeded conversion in the photolysis solutions.

[3] = Photolysis / cleavage of the esters to dicamba (statements of the description); assay type: physicochemical; conditions: qualitative
Text: The efficacy of the photolabile esters can be assayed in vitro, or in greenhouse or field experiments. A useful in vitro assay for post-emergent activity involves photolysis of a dilute solution of the esters using simulated sunlight. This is conveniently achieved by photolysis of a solution of the ester in an organic solvent which is miscible with water and to which some water has been added. As described in the Examples, photolysis in acetonitrile or tetrahydrofuran containing 10% water by weight is effective. Low concentrations of the ester should be used so that the entire volume is exposed to sunlight. Since the maximum extinction coefficient of the typical esters above 220 nm is in the range of 1000-10,000 M^−1 cm^−1, a concentration of 0.1 mM is effective. Photolysis in a quartz tube exposed to simulated or actual sunlight is a typical protocol.

broadleaf weeds = assay: Control of broadleaf weeds by ester concentrates (statements of the description); assay type: in vivo; conditions: emulsifiable and suspension concentrates; Sesbania macrocarpa, morning glory, velvetleaf, Palmer amaranth, fat hen, sicklepod
Euphorbia species = assay: Field testing for post-emergent activity in the Southern Hemisphere (Example 39); assay type: in vivo; conditions: 9 as suspension concentrate, other esters as emulsifiable concentrates; for % control, 0.25 lb/ac (0.28 kg/hectare): 0.25 lb dicamba a.e. per acre; for % control, 0.50 lb/ac (0.56 kg/hectare): 0.50 lb dicamba a.e. per acre
Method: The primary weeds were Euphorbia species. Ester 9 was tested as a suspension concentrate using the formulation of Example 33 The other esters were tested as emulsifiable concentrates having the formulations shown in the table below. Akzo Nobel SPONTO EC 334 and SPONTO EC 336 along with SURFONIC CO-54 and […] (Huntsman) were used as emulsifiers and Aromatic 200 (A 200; Exxon) was used as the solvent. […] The diglycolamine salt of dicamba (CLARITYTM) was used as a comparator.

velvetleaf = assay: Greenhouse post-emergent control of velvetleaf by emulsifiable concentrates (Example 37); assay type: in vivo; conditions: Abutilon theophrasti, post-emergence, 504 h, greenhouse, Example 37; for pest or weed control at 140 g/ha: read-out: % Control of velvetleaf, 140 g/ha; for pest or weed control at 280 g/ha: read-out: % Control of velvetleaf, 280 g/ha; for pest or weed control at 420 g/ha: read-out: % Control of velvetleaf, 420 g/ha; for pest or weed control at 560 g/ha: read-out: % Control of velvetleaf, 560 g/ha
Method: The efficacy of some photo-labile ester formulations from Example 28 for post-emergent control of velvetleaf was tested in the greenhouse. All formulations were tested at rates of 140, 280, 420, and 560 g dicamba equivalent per hectare rates and compared to the diglycolamine salt of dicamba (CLARITY®) at the same rates and untreated control plants. The velvetleaf plants were 10-15 cm in height at the time of spraying. Percent control was evaluated three weeks after treatment.
The methodology of Example 29 was used to evaluate the efficacy of several esters of dicamba which convert to dicamba by hydrolysis for post-emergent control of velvetleaf as emulsifiable concentrate formulations.

[4] = In vitro dicamba photo-release from photo-labile dicamba esters, acetonitrile/10% water solvent (Example 27); assay type: physicochemical; conditions: acetonitrile containing 10% water
Method: This Example describes in vitro testing of dicamba photo-release by homogeneous solutions of photo-labile dicamba esters. The esters were dissolved in tetrahydrofuran (THF). Ester concentration was 0.1 mM. 25 ml of the solution was transferred to 22 mm tubes fabricated from graded seal quartz tubing with a 19/22 tapered seal at the top, which was closed with a tapered glass plug and secured with a plastic ring clamp. The solution was entirely below the quartz-to-glass transition, ensuring that the entire volume was exposed to the full spectrum.
The sealed tubes were placed in a Growth Chamber where they were exposed to simulated sunlight for 14 hours per day at 35° C. Dicamba concentrations in the solution were measured during the course of the photolysis.
A sample of the initial solution was reserved in a glass vial away from the light source and analyzed at the conclusion of the study, providing a measurement of the amount of dicamba present without illumination of the photolysis solution (the “dark control”).
This Example is another photolysis of photo-labile dicamba esters, but using acetonitrile containing 10% water by weight as the solvent. The experimental protocol is otherwise the same as in Example 18.

SMILES	solubility, in words [1]	Conversion to Dicamba, Dark, Day 0 [2]	Conversion to Dicamba, Dark, Day 1 [2]	Conversion to Dicamba, Dark, Day 2 [2]	Conversion to Dicamba, Dark, Day 3 [2]	Conversion to Dicamba, Dark, Day 4 [2]	Conversion to Dicamba, Dark, Day 7 [2]	Conversion to Dicamba, Dark, Day 14 [2]	Conversion to Dicamba, Dark, Day 21 [2]	Conversion to Dicamba, Dark, Day 28 [2]	Conversion to Dicamba, Light, Day 0 [2]	Conversion to Dicamba, Light, Day 1 [2]	Conversion to Dicamba, Light, Day 2 [2]	Conversion to Dicamba, Light, Day 3 [2]	Conversion to Dicamba, Light, Day 4 [2]	Conversion to Dicamba, Light, Day 7 [2]	Conversion to Dicamba, Light, Day 14 [2]	Conversion to Dicamba, Light, Day 21 [2]	Conversion to Dicamba, Light, Day 28 [2]	cleavage to form dicamba, in words [3]	other results
COc1c(Cl)ccc(Cl)c1C(=O)Oc1ccc(=O)n(CCC#N)n1 [Ester 34a]	insoluble solid	3%	9%	14%	18%	23%	38%	56%	71%	87%	3%	10%	14%	16%	20%	29%	48%	60%	71%	–	–
COc1c(Cl)ccc(Cl)c1C(=O)Oc1nnc(OC(=O)c2c(Cl)ccc(Cl)c2OC)c2ccccc12 [Ester 18, Phthalhydrazide Diester of Dicamba]	highly insoluble	–	–	–	–	–	–	–	–	–	–	–	–	–	–	–	–	–	–	undergo efficient cleavage to form dicamba	–
COc1c(Cl)ccc(Cl)c1C(=O)Oc1ccc(OC(=O)c2c(Cl)ccc(Cl)c2OC)nn1 [Ester 17, Maleic Hydrazide Diester of Dicamba]	readily soluble in organic solvents	6%	16%	26%	35%	41%	49%	60%	–	–	6%	18%	26%	33%	36%	42%	53%	–	–	undergo efficient cleavage to form dicamba	control of a number of broadleaf weeds in field testing, in words (broadleaf weeds): proven effective; % control, 0.25 lb/ac (0.28 kg/hectare) (Euphorbia species): 41%; % control, 0.50 lb/ac (0.56 kg/hectare) (Euphorbia species): 53%; pest or weed control at 140 g/ha (velvetleaf): 23.3%; pest or weed control at 280 g/ha (velvetleaf): 41.7%; pest or weed control at 420 g/ha (velvetleaf): 75%; pest or weed control at 560 g/ha (velvetleaf): 73.3%
COc1c(Cl)ccc(Cl)c1C(=O)Oc1ccccn1 [Ester 14, 2-Hydroxypyridine Ester of Dicamba]	readily soluble in organic solvents	2%	68%	81%	84%	86%	92%	90%	91%	97%	2%	61%	63%	64%	68%	67%	71%	71%	75%	undergoes efficient cleavage to form dicamba	control of a number of broadleaf weeds in field testing, in words (broadleaf weeds): proven effective; Dark Control % dicamba ([4]; no illumination): 0%; Conversion to dicamba, 1 day ([4]; simulated sunlight, 1 day): 6%; Conversion to dicamba, 2 days ([4]; simulated sunlight, 2 days): 9%; Conversion to dicamba, 3 days ([4]; simulated sunlight, 3 days): 10%; Conversion to dicamba, 5 days ([4]; simulated sunlight, 5 days): 12%; Conversion to dicamba, 7 days ([4]; simulated sunlight, 7 days): 12%; Conversion to dicamba, 11 days ([4]; simulated sunlight, 11 days): 19%; Conversion to dicamba, 13 days ([4]; simulated sunlight, 13 days): 21%; Conversion to dicamba, 15 days ([4]; simulated sunlight, 15 days): 25%; Conversion to dicamba, 19 days ([4]; simulated sunlight, 19 days): 26%; % control, 0.25 lb/ac (0.28 kg/hectare) (Euphorbia species): 47%; % control, 0.50 lb/ac (0.56 kg/hectare) (Euphorbia species): 56%; pest or weed control at 140 g/ha (velvetleaf): 40%; pest or weed control at 280 g/ha (velvetleaf): 58.3%; pest or weed control at 420 g/ha (velvetleaf): 80.8%; pest or weed control at 560 g/ha (velvetleaf): 85%
